Results reported in patent US8759520B2, “Compounds for treating cancer” (Boehringer Ingelheim International GmbH, priority 2008, dated 2014).

Assays:
Bcl-2 [1] = molecular target: T1, Bcl-2 (Homo sapiens, UniProt P10415); conditions: reported by Wang and co-workers; read-out: equilibrium binding constant KD to Bcl-2 protein; cited from earlier work
Bcl-2 [2] = molecular target: T1, Bcl-2; assay: Homogeneous HTS assay for inhibitors of the Bcl-2 : Bak (72-87) BH3 domain interaction, fluorescence polarisation (2D-FIDA); type: binding; conditions: fluorescence polarisation, fluorescent labelled Bak BH3 domain derived peptide; read-out: IC50 [μM] Bcl-2

T1 sequence (P10415 whole entry, species assumed, the tested form may be a part): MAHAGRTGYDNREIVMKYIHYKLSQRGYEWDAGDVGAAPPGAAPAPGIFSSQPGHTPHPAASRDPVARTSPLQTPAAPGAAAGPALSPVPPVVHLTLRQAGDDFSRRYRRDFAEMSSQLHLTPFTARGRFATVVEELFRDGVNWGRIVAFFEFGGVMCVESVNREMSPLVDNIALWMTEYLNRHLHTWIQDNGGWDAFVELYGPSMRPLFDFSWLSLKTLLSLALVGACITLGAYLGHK

Compound | IC50 (Bcl-2 [2]) [µM] | Kd (Bcl-2 [1]) [µM]
BH3 domain derived peptide ligand, sequence GQVGRQLAIIGDDINR, fluorescently labelled for the assay |  | ~0.2
N=c1n(Cc2ccccc2)c2ccccc2n1Cc1ccncc1 [Compound 3, 1-Benzyl-3-pyridin-4-ylmethyl-1,3-dihydro-benzoimidazol-2-ylideneamine] | > 100 | 
N=c1n(CCCOc2ccc(Cl)cc2)c2ccccc2n1Cc1ccc(Br)cc1 [Compound 12, 1-(4-Bromo-benzyl)-3-[3-(4-chloro-phenoxy)-propyl]-1,3-dihydro-benzoimidazol-2-ylideneamine] | 11 to 100 | 
N=c1n(CCCOc2ccc(F)cc2)c2ccccc2n1Cc1csc(N2CCN(Cc3ccccc3-c3ccccc3)CC2)n1 [Compound 35, 1-[2-(4-Biphenyl-2-ylmethyl-piperazin-1-yl)-thiazol-4-ylmethyl]-3-[3-(4-fluoro-phenoxy)-propyl]-1,3-dihydro-benzoimidazol-2-ylideneamine] | < 10 | 
CC1(C)CCC(c2ccc(Cl)cc2)=C(CN2CCN(c3nc(Cn4c(=N)n(CCCOc5ccc(F)cc5)c5ccccc54)cs3)CC2)C1 [Compound 37, 1-(2-{4-[2-(4-Chloro-phenyl)-5,5-dimethyl-cyclohex-1-enylmethyl]-piperazin-1-yl}-thiazol-4-ylmethyl)-3-[3-(4-fluoro-phenoxy)-propyl]-1,3-dihydro-benzoimidazol-2-ylideneamine] | < 10 | 
N=c1n(CCCOc2ccc(F)cc2)c2ccccc2n1Cc1ccc(CNCC(=O)Nc2cccc(Cl)c2)cc1 [Compound 50, N-(3-Chloro-phenyl)-2-(4-{3-[3-(4-fluoro-phenoxy)-propyl]-2-imino-2,3-dihydro-benzoimidazol-1-ylmethyl}-benzylamino)-acetamide] | 11 to 100 | 
N=c1n(CCCOc2ccc(F)cc2)c2ccccc2n1Cc1ccc(CNCC(=O)Nc2ccccc2Cl)cc1 [Compound 43, N-(2-Chloro-phenyl)-2-(4-{3-[3-(4-fluoro-phenoxy)-propyl]-2-imino-2,3-dihydro-benzoimidazol-1-ylmethyl}-benzylamino)-acetamide] | 11 to 100 | 
N=c1n(CCCOc2ccc(F)cc2)c2ccccc2n1Cc1ccc(N2CCN(Cc3ccccc3)CC2)nc1 [Compound 53, 1-[6-(4-Benzyl-piperazin-1-yl)-pyridin-3-ylmethyl]-3-[3-(4-fluoro-phenoxy)-propyl]-1,3-dihydro-benzoimidazol-2-ylideneamine] | 11 to 100 | 
N=c1n(CCCOc2ccc(F)cc2)c2ccccc2n1Cc1csc(Cl)n1 [Compound 34, 1-(2-Chloro-thiazol-4-ylmethyl)-3-[3-(4-fluoro-phenoxy)-propyl]-1,3-dihydro-benzoimidazol-2-ylideneamine] | 11 to 100 | 
CC1(C)CCC(c2ccc(Cl)cc2)=C(CN2CCN(c3ccc(Cn4c(=N)n(CCCOc5ccccc5)c5ccccc54)cc3)CC2)C1 [Compound 32, 1-(4-{4-[2-(4-Chloro-phenyl)-5,5-dimethyl-cyclohex-1-enylmethyl]-piperazin-1-yl}-benzyl)-3-(3-phenoxy-propyl)-1,3-dihydro-benzoimidazol-2-ylideneamine] | < 10 | 
N=c1n(CCCOc2ccc(F)cc2)c2ccccc2n1Cc1csc(N2CCN(Cc3ccccc3-c3ccc(Cl)cc3)CC2)n1 [Compound 36, 1-{2-[4-(4′-Chloro-biphenyl-2-ylmethyl)-piperazin-1-yl]-thiazol-4-ylmethyl}-3-[3-(4-fluoro-phenoxy)-propyl]-1,3-dihydro-benzoimidazol-2-ylideneamine] | < 10 | 
N=c1n(CCCOc2ccccc2)c2ccccc2n1Cc1cccc(N2CCN(Cc3ccccc3-c3ccccc3)CC2)c1 [Compound 29, 1-[3-(4-Biphenyl-2-ylmethyl-piperazin-1-yl)-benzyl]-3-(3-phenoxy-propyl)-1,3-dihydro-benzoimidazol-2-ylideneamine] | < 10 | 
CCOC(=O)Cn1c(=N)n(CCCOc2ccc(F)cc2)c2ccccc21 [Compound 8, {3-[3-(4-Fluoro-phenoxy)-propyl]-2-imino-2,3-dihydro-benzoimidazol-1-yl}-acetic acid ethyl ester] | 11 to 100 | 

Second part, led by results:

IC50 (Bcl-2 [2]) [µM] | Compound | Kd (Bcl-2 [1]) [µM]
< 10 | CCOC(=O)c1cccc(OCCCn2c(=N)n(Cc3ccc(N4CCN(Cc5ccccc5-c5ccc(Cl)cc5)CC4)cc3)c3ccccc32)c1 [Compound 73, 3-[3-(3-{4-[4-(4′-Chloro-biphenyl-2-ylmethyl)-piperazin-1-yl]-benzyl}-2-imino-2,3-dihydro-benzoimidazol-1-yl)-propoxy]-benzoic acid ethyl ester] | 
< 10 | CC1(C)CCC(c2ccc(Cl)cc2)=C(CN2CCN(c3cccc(Cn4c(=N)n(CCCOc5cccc(C(=O)O)c5)c5ccccc54)c3)CC2)C1 [Compound 75, 3-{3-[3-(3-{4-[2-(4-Chloro-phenyl)-5,5-dimethyl-cyclohex-1-enylmethyl]-piperazin-1-yl}-benzyl)-2-imino-2,3-dihydro-benzoimidazol-1-yl]-propoxy}-benzoic acid] | 
11 to 100 | Cc1ccc(OCC(O)Cn2c(=N)n(Cc3ccccc3)c3ccccc32)cc1 (centres unmarked) [Compound 99, 1-(3-Benzyl-2-imino-2,3-dihydro-benzoimidazol-1-yl)-3-p-tolyloxy-propan-2-ol] | 
11 to 100 | COc1ccccc1OCCn1c(=N)n(Cc2ccccc2)c2ccccc21 [Compound 95, 1-Benzyl-3-[2-(2-methoxy-phenoxy)-ethyl]-1,3-dihydro-benzoimidazol-2-ylideneamine] | 
11 to 100 | COC(=O)c1ccc(OCCCn2c(=N)n(Cc3cccc(Br)c3)c3ccccc32)cc1 [Compound 67, 4-{3-[3-(3-Bromo-benzyl)-2-imino-2,3-dihydro-benzoimidazol-1-yl]-propoxy}-benzoic acid methyl ester] | 
11 to 100 | N=c1n(Cc2cccc(Br)c2)c2ccccc2n1CC(O)COc1ccc(F)cc1 (centres unmarked) [Compound 76, 1-[3-(3-Bromo-benzyl)-2-imino-2,3-dihydro-benzoimidazol-1-yl]-3-(4-fluoro-phenoxy)-propan-2-ol] | 
< 10 | N=c1n(CCCOc2cccc(C(=O)O)c2)c2ccccc2n1Cc1ccc(N2CCN(Cc3ccccc3-c3ccccc3)CC2)cc1 [Compound 70, 3-(3-{3-[4-(4-Biphenyl-2-ylmethyl-piperazin-1-yl)-benzyl]-2-imino-2,3-dihydro-benzoimidazol-1-yl}-propoxy)-benzoic acid] | 
< 10 | N=c1n(CCCOc2cccc(C(=O)O)c2)c2ccccc2n1Cc1ccc(N2CCN(Cc3ccccc3-c3ccc(Cl)cc3)CC2)cc1 [Compound 74, 3-[3-(3-{4-[4-(4′-Chloro-biphenyl-2-ylmethyl)-piperazin-1-yl]-benzyl}-2-imino-2,3-dihydro-benzoimidazol-1-yl)-propoxy]-benzoic acid] | 
11 to 100 | N=c1n(Cc2ccccc2)c2ccccc2n1CC(O)COc1ccc([N+](=O)[O-])cc1 (centres unmarked) [Compound 81, 1-(3-Benzyl-2-imino-2,3-dihydro-benzoimidazol-1-yl)-3-(4-nitro-phenoxy)-propan-2-ol] | 
< 10 | CS(=O)(=O)NC(=O)c1cccc(OCCCn2c(=N)n(Cc3cccc(Br)c3)c3ccccc32)c1 [Compound 86, N-(3-{3-[3-(3-Bromo-benzyl)-2-imino-2,3-dihydro-benzoimidazol-1-yl]-propoxy}-benzoyl)-methanesulfonamide] | 
